Ends that are not written are not given here.
Legend:
[1] = test system: S.typhimurium 7731; assay type: cell-based, Salmonella enterica serovar typhimurium C77-31
Text: (§1) The tested strains were kindly provided by the laboratory of Veterinary Microbiology and Immunology, the College of Veterinary Medicine, Northeast Agricultural University (gram-negative bacteria, Salmonella enterica serovar typhimurium C77-31, Salmonella typhimurium ATCC 14028, Escherichia coli ATCC 25922, Pseudomonas aeruginosa ATCC 27853 and gram-positive bacteria, Staphylococcus aureus ATCC 29213, Staphylococcus aureus ATCC 43300, Staphylococcus epidermidis ATCC 12228, Staphylococcus aureus ATCC 25923).

[2] = test system: S.typhimurium 14028; assay type: cell-based, Salmonella typhimurium ATCC 14028
Text: as §1

[3] = test system: S.aureus 29213; assay type: cell-based, Staphylococcus aureus ATCC 29213; settings: 29213
Text: as §1
(§2) The famous microtiter dilution, National Committee for Clinical Laboratory Standards, was adopted to measure the antimicrobial ability of the engineering peptides ([Chou et al., 2016]). In brief, the 50μl with serial dilution was incubated with the same volume bacteria (1×10^5CFU/ml in midi-logarithmic phase) in a 96-well plate 18–24h at 37°C. The positive control was the bacteria treated with culture medium and the negative control was merely culture medium. The MICs (minimum inhibitory concentrations) were defined as the lowest concentration of peptides that prevented the production of visible turbidity ([Tossi et al., 2000]).

[4] = test system: S.epidermidis 12228; assay type: cell-based, Staphylococcus epidermidis ATCC 12228
Text: as §1

[5] = test system: S.aureus 25923; assay type: cell-based, Staphylococcus aureus ATCC 25923; settings: 25923
Text: as §1, §2

[6] = test system: human red blood cells (hRBCs); assay: Hemolytic activity; assay type: cell-based; settings: hRBC; ratio of MHC to GM
Text: The hemolytic activity of peptides was reflected by the releasing amount of hemoglobin from erythrocytes lysis induced by peptides ([Dong et al., 2014a]). The informed consent was obtained from the volunteers (3 healthy 25-year-old male volunteers) before the experiment. In brief, the human red blood cells (hRBCs), donated by volunteer, were collected, washed, and resuspended in PBS at pH 7.2. The peptides were serially diluted in PBS at different concentrations in a 96-well cell cultures plate and incubated with 50μl hRBCs for 1h at 37°C. The 0.1% Trition X-100 was selected as the treatment of positive control and the negative control was the hRBCs treated with PBS. After 1h incubation, the supernatant, obtained by centrifuging the plate 1,000g for 5min, was transferred to a brand-new plate for absorbance detection at 570nm. The releasing amount of hemoglobin was converted to the percent hemolysis against to 0.1% Triton X-100 treatment. The lowest concentration caused 5% hemolysis of hRBCs and was defined as the lowest hemolytic concentration of antimicrobial peptide.

[7] = test system: RAW 264.7 cells; assay type: cell-based, murine; settings: RAW264.7; ratio of IC50 to GM
Procedure: The MTT (3-[4,5 dimethylthiozol-2-yl]-2,5-diphenylterazoliumbromide) dye was selected to analyze the cytotoxicity of peptides against the murine macrophage cell RAW 264.7 (National Collection of Authenticated Cell Cultures, Shanghai, China), human embryonic kidneys (HK293T), and the porcine intestinal epithelial cells (IPEC-J2) as in our previously study ([Li et al., 2020]). In short, the cells (10^4 cells/well) were seeded into 96-well plates and were cultivated overnight. Then the peptides with different final concentration (2μM, 4μM, 8μM, 16μM, 32μM, 64μM, and 128μM) were introduced into the plate and challenged with cells for 24h. After overnight incubation, the 50μl MTT (0.5mg/ml) was added into the cell cultures for 4h. Then the plate was centrifuged to discard the supernatants and obtain the formazan crystals. The DMSO (dimethyl sulfoxide) was employed as a solvent to dissolve the formazan crystals on the bottom of the plate and the optical density was read at 492nm with a microplate reader.

[8] = test system: P. aeruginosa ATCC 27853 cells; assay: Outer membrane permeabilization, NPN uptake; assay type: cell-based, Pseudomonas aeruginosa ATCC 27853
Procedure: The outer membrane permeabilization of peptides was observed by monitoring the fluorescence change of dye 1-N-phenylnaphthylamine (NPN; Dong et al., 2014c). The 10μm NPN (Sigma-Aldrich, Shanghai, China) was first incubated with the P. aeruginosa ATCC 27853 cells (OD600=0.2, suspended in 5mM HEPES buffer supplied with 5mM glucose) for 30min. Afterward, the mixture was subjected to the detection of fluorescence, which served as the background at the excitation wavelength (λ=350nm) and the emission wavelength (λ=420nm). Then the peptides with various concentrations (1μM, 2μM, 4μM, 8μM, 16μM, 32μM, and 64μM) were added into the mixture and the fluorescence was monitored until the value was tended to stable. The %NPN uptake against 10μg/ml polymyxin B was calculated to analyze the outer membrane permeability of peptides.

[9] = test system: P. aeruginosa ATCC 27853 cells; assay: Cytoplasmic membrane depolarization, diSC3-5; assay type: cell-based, Pseudomonas aeruginosa ATCC 27853; settings: 1/2 MIC, 0s to 1,020s
Procedure: The cytoplasmic membrane depolarization of peptides was analyzed with membrane potential-sensitive dye DISC3-5 ([Ma et al., 2011]). First, 0.4μM DISC3-5 (Sigma-Aldrich, Shanghai, China) was incubated with the P. aeruginosa ATCC 27853 cells (OD600=0.05) suspended in 5mM HEPES buffer supplied with 20mM glucose for 1h. Then 100mMK^+ was introduced into the mixture for the reason of keeping K^+ concentration equilibration of bacterial cytoplasmic and extracellular conditions. Afterward, the peptides were reacted with the bacterial cells and the fluorescence value was tracked over time to plot the fluorescence curve (excitation λ=622nm, emission λ=670nm).

[10] = test system: P. aeruginosa ATCC 27853; assay: Transmission electron microscope; assay type: cell-based, Pseudomonas aeruginosa ATCC 27853; settings: MIC (1μM)
Text: (§3) The sample for the test of the Transmission Electron Microscope (TEM) was to follow the same procedure as SEM. After the overnight pre-fixation with 2.5% glutaraldehyde, the bacteria was then post-fixed with 2% osmium tetroxide (sealed ampule, Shanghai, China). Afterward, the samples were dehydrated with ethanol at a series of concentrations (50, 70, 90, and 100%) and substituted the 100% ethanol with 50% ethanol+50% acetone, 100% acetone, 50% acetone+50% epoxy resin, and 100% epoxy resin successively. Finally, the samples were sectioned and stained for observation.

[11] = test system: S. aureus ATCC 29213; assay: Transmission electron microscope; assay type: cell-based, Staphylococcus aureus ATCC 29213; settings: MIC (2μM)
Text: as §3

VKKWVKKWVKKWVKKW-NH2 [VW5]
MIC [1]: 1 µM
MIC [2]: 2 µM
MIC [3]: 2 µM
MIC [4]: 2 µM
MIC [5]: 2 µM
Therapeutic index (TI) [6]: > 76.19
Therapeutic index (TI) [7]: 1860.86
%NPN uptake against 10μg/ml polymyxin B ([8]; peptide 1μM): 9.49%
%NPN uptake against 10μg/ml polymyxin B ([8]; peptide 64μM): 102.91%
cytoplasmic membrane depolarization, diSC3-5 fluorescence over time [9]: dose-dependent effect
ultrastructure (TEM) [10]: cellular contents of bacterial cells leaked
ultrastructure (TEM) [11]: diffused around the shrunken cells

— PMC8548882, “The Trp-rich Antimicrobial Amphiphiles With Intramolecular Aromatic Interactions for the Treatment of Bacterial Infection” (Frontiers in Microbiology, 2021)
